Results reported in US20230053328A9, “COMBINATION THERAPIES USING CDK INHIBITORS” (Pfizer Inc., priority 2019, published 2023).

System: MC38 syngeneic mouse tumor model
Assay: MC38 syngeneic mouse tumor model, tumor growth inhibition and survival (Example 1)
Type: in vivo
Method: MC38 cells were obtained from American Type Culture Collection (ATCC) and cultured in Roswell Park Memorial Institute (RPMI1640) supplemented with 10% fetal bovine serum (FBS). All cells were maintained in a humidified incubator at 37° C. with 5% carbon dioxide (CO2). Female C57/BL6 mice were obtained from Jackson Laboratories at 8 weeks of age. To generate the syngeneic model, 0.5 million MC38 tumor cells were subcutaneously implanted into the right flank of female C57/BL6 mice. Tumor bearing mice were randomized into six treatment groups based on average tumor sizes of approximately 70 mm^3 per group, on Day 9 post tumor cell implantation. […]
Tumor volumes were measured three times a week. Tumor volume was calculated based on two-dimensional caliper measurement with cubic millimeter volume calculated using the formula (length×width2)×0.5. […] Statistical significance determined using the Holm-Sidak method, with alpha=0.05.

## C[C@@]1(O)CCC[C@H]1n1c(=O)c(C(F)F)cc2cnc(NC3CCN(S(C)(=O)=O)CC3)nc21 [PF-06873600, 6-(difluoromethyl)-8-((1R,2R)-2-hydroxy-2-methylcyclopentyl)-2-(1-(methylsulfonyl)piperidin-4-ylamino)pyrido[2,3-d]pyrimidin-7(8H)-one]
MC38 syngeneic mouse tumor model, example heading
  synergy with OX40/4-1BB immune checkpoint modulators (in words): Synergizes
MC38 tumors in C57/BL6 mice, Day 27 post-treatment initiation
  tumor growth inhibition (in words): did not significantly inhibit tumor growth
